We go through 37 compounds from patent publication US10772893B2, “2-(morpholin-4-yl)-1,7-naphthyridines” (BAYER PHARMA AKTIENGESELLSCHAFT, priority 2014, dated 2020).

Each structure is given as a SMILES string.

The test system of one test is HeLa cells. Briefly: Proliferation assay, crystal violet staining. The following applies: Homo sapiens, 96 h, read-out: Inhibition of HeLa cell proliferation, HeLa cells, 4 days incubation.
With `Clc1cc(N2CCOCC2)nc2c(-c3cc[nH]n3)nccc12` [Example 62, 4-chloro-2-morpholin-4-yl-8-(1H-pyrazol-3-yl)-[1,7]naphthyridine], the IC50 is 164 nM.

As to `Fc1cccc(-c2cc(N3CCOCC3)nc3c(-c4ccn[nH]4)nccc23)c1` [Example 298, 4-(3-fluorophenyl)-2-(morpholin-4-yl)-8-(1H-pyrazol-5-yl)-1,7-naphthyridine], the IC50 was determined as 2440 nM.

Consider `Clc1ccc(-c2cc(N3CCOCC3)nc3c(-c4ccn[nH]4)nccc23)s1` [Example 299, 4-(5-chlorothiophen-2-yl)-2-(morpholin-4-yl)-8-(1H-pyrazol-5-yl)-1,7-naphthyridine], for which the IC50 is above 3000 nM.

As for `FC(F)(F)c1ccccc1-c1cc(N2CCOCC2)nc2c(-c3ccn[nH]3)nccc12` [Example 301, 2-(morpholin-4-yl)-8-(1H-pyrazol-5-yl)-4-[2-(trifluoromethyl)phenyl]-1,7-naphthyridine], the IC50 came to 2820 nM.

Consider `FC(F)(F)c1cccc(-c2cc(N3CCOCC3)nc3c(-c4ccn[nH]4)nccc23)c1` [Example 303, 2-(morpholin-4-yl)-8-(1H-pyrazol-5-yl)-4-[3-(trifluoromethyl)phenyl]-1,7-naphthyridine], for which the IC50 was above 3000 nM.

For the compound `Clc1cccc(-c2cc(N3CCOCC3)nc3c(-c4ccn[nH]4)nccc23)c1` [Example 304, 4-(3-chlorophenyl)-2-(morpholin-4-yl)-8-(1H-pyrazol-5-yl)-1,7-naphthyridine], the IC50 is above 3000 nM.

In the case of `COc1cccc(-c2cc(N3CCOCC3)nc3c(-c4ccn[nH]4)nccc23)c1` [Example 306, 4-(3-methoxyphenyl)-2-(morpholin-4-yl)-8-(1H-pyrazol-5-yl)-1,7-naphthyridine], the IC50 was above 3000 nM.

For `c1coc(Cc2cc(N3CCOCC3)nc3c(-c4ccn[nH]4)nccc23)c1` [Example 310, 4-(furan-2-ylmethyl)-2-(morpholin-4-yl)-8-(1H-pyrazol-5-yl)-1,7-naphthyridine], the IC50 was above 3000 nM.

In the case of `Cc1cccc(-c2cc(N3CCOCC3)nc3c(-c4ccn[nH]4)nccc23)c1C` [Example 312, 4-(2,3-dimethylphenyl)-2-(morpholin-4-yl)-8-(1H-pyrazol-5-yl)-1,7-naphthyridine], the IC50 is above 3000 nM.

With `OCc1cccc(-c2cc(N3CCOCC3)nc3c(-c4ccn[nH]4)nccc23)c1` [Example 313, {3-[2-(morpholin-4-yl)-8-(1H-pyrazol-5-yl)-1,7-naphthyridin-4-yl]phenyl}methanol], the IC50 turned out to be 2540 nM.

On to `Fc1ccc(-c2cc(N3CCOCC3)nc3c(-c4ccn[nH]4)nccc23)cc1` [Example 314, 4-(4-fluorophenyl)-2-(morpholin-4-yl)-8-(1H-pyrazol-5-yl)-1,7-naphthyridine], for which the IC50 is above 3000 nM.

With `Clc1ccc(-c2cc(N3CCOCC3)nc3c(-c4ccn[nH]4)nccc23)cc1` [Example 316, 4-(4-chlorophenyl)-2-(morpholin-4-yl)-8-(1H-pyrazol-5-yl)-1,7-naphthyridine], the IC50 was above 3000 nM.

For `COc1cccc(-c2cc(N3CCOCC3)nc3c(-c4ccn[nH]4)nccc23)c1F` [Example 317, 4-(2-fluoro-3-methoxyphenyl)-2-(morpholin-4-yl)-8-(1H-pyrazol-5-yl)-1,7-naphthyridine], the IC50 is 2980 nM.

With `Cc1ccccc1-c1cc(N2CCOCC2)nc2c(-c3ccn[nH]3)nccc12` [Example 318, 4-(2-methylphenyl)-2-(morpholin-4-yl)-8-(1H-pyrazol-5-yl)-1,7-naphthyridine], the IC50 worked out at 2000 nM.

In the case of `CN(C)c1cccc(-c2cc(N3CCOCC3)nc3c(-c4ccn[nH]4)nccc23)c1` [Example 320, N,N-dimethyl-3-[2-(morpholin-4-yl)-8-(1H-pyrazol-5-yl)-1,7-naphthyridin-4-yl]aniline], the IC50 is above 3000 nM.

`CN(C)c1ccccc1-c1cc(N2CCOCC2)nc2c(-c3ccn[nH]3)nccc12` [Example 321, N,N-dimethyl-2-[2-(morpholin-4-yl)-8-(1H-pyrazol-5-yl)-1,7-naphthyridin-4-yl]aniline]: the IC50 was above 3000 nM.

With `CS(=O)(=O)Nc1ccccc1-c1cc(N2CCOCC2)nc2c(-c3ccn[nH]3)nccc12` [Example 322, N-{2-[2-(morpholin-4-yl)-8-(1H-pyrazol-5-yl)-1,7-naphthyridin-4-yl]phenyl}methanesulfonamide], the IC50 is above 3000 nM.

Take `CS(=O)(=O)Nc1ccc(-c2cc(N3CCOCC3)nc3c(-c4ccn[nH]4)nccc23)cc1` [Example 323, N-{4-[2-(morpholin-4-yl)-8-(1H-pyrazol-5-yl)-1,7-naphthyridin-4-yl]phenyl}methanesulfonamide]: the IC50 is 2220 nM.

As to `CN(C)C(=O)c1ccc(-c2cc(N3CCOCC3)nc3c(-c4ccn[nH]4)nccc23)cc1` [Example 324, N,N-dimethyl-4-[2-(morpholin-4-yl)-8-(1H-pyrazol-5-yl)-1,7-naphthyridin-4-yl]benzamide], the IC50 amounted to 2420 nM.

`C/C=C/c1cc(N2CCOCC2)nc2c(-c3ccn[nH]3)nccc12` [Example 325, 2-(morpholin-4-yl)-4-[(1E)-prop-1-en-1-yl]-8-(1H-pyrazol-5-yl)-1,7-naphthyridine]: the IC50 was 999 nM.

Turning to `Oc1ccc(-c2cc(N3CCOCC3)nc3c(-c4ccn[nH]4)nccc23)cc1` [Example 326, 4-[2-(morpholin-4-yl)-8-(1H-pyrazol-5-yl)-1,7-naphthyridin-4-yl]phenol], the IC50 was found to be 2920 nM.

With `Fc1ccccc1-c1cc(N2CCOCC2)nc2c(-c3ccn[nH]3)nccc12` [Example 327, 4-(2-fluorophenyl)-2-(morpholin-4-yl)-8-(1H-pyrazol-5-yl)-1,7-naphthyridine], the IC50 was 1890 nM.

In the case of `O=C(NC1CC1)c1cccc(-c2cc(N3CCOCC3)nc3c(-c4ccn[nH]4)nccc23)c1` [Example 330, N-cyclopropyl-3-[2-(morpholin-4-yl)-8-(1H-pyrazol-5-yl)-1,7-naphthyridin-4-yl]benzamide], the IC50 was above 3000 nM.

In the case of `COc1ccc(-c2cc(N3CCOCC3)nc3c(-c4ccn[nH]4)nccc23)c(OC)c1` [Example 332, 4-(2,4-dimethoxyphenyl)-2-(morpholin-4-yl)-8-(1H-pyrazol-5-yl)-1,7-naphthyridine], the IC50 was above 3000 nM.

Regarding `Clc1ccccc1-c1cc(N2CCOCC2)nc2c(-c3ccn[nH]3)nccc12` [Example 333, 4-(2-chlorophenyl)-2-(morpholin-4-yl)-8-(1H-pyrazol-5-yl)-1,7-naphthyridine], the IC50 was above 3000 nM.

Take `Cc1ccc(C)c(-c2cc(N3CCOCC3)nc3c(-c4ccn[nH]4)nccc23)c1` [Example 334, 4-(2,5-dimethylphenyl)-2-(morpholin-4-yl)-8-(1H-pyrazol-5-yl)-1,7-naphthyridine]: the IC50 is above 3000 nM.

For `Nc1cccc(-c2cc(N3CCOCC3)nc3c(-c4ccn[nH]4)nccc23)c1` [Example 335, 3-[2-(morpholin-4-yl)-8-(1H-pyrazol-5-yl)-1,7-naphthyridin-4-yl]aniline], the IC50 was determined as 2960 nM.

Turning to `Oc1cccc(-c2cc(N3CCOCC3)nc3c(-c4ccn[nH]4)nccc23)c1` [Example 337, 3-[2-(morpholin-4-yl)-8-(1H-pyrazol-5-yl)-1,7-naphthyridin-4-yl]phenol], the IC50 is 1710 nM.

Take `COc1ccc(F)cc1-c1cc(N2CCOCC2)nc2c(-c3ccn[nH]3)nccc12` [Example 339, 4-(5-fluoro-2-methoxyphenyl)-2-(morpholin-4-yl)-8-(1H-pyrazol-5-yl)-1,7-naphthyridine]: the IC50 was above 3000 nM.

For the compound `Fc1ccc(-c2cc(N3CCOCC3)nc3c(-c4ccn[nH]4)nccc23)c(F)c1` [Example 340, 4-(2,4-difluorophenyl)-2-(morpholin-4-yl)-8-(1H-pyrazol-5-yl)-1,7-naphthyridine], the IC50 is 2950 nM.

Consider `Fc1cccc(-c2cc(N3CCOCC3)nc3c(-c4ccn[nH]4)nccc23)c1F` [Example 341, 4-(2,3-difluorophenyl)-2-(morpholin-4-yl)-8-(1H-pyrazol-5-yl)-1,7-naphthyridine], for which the IC50 amounted to 1590 nM.

Take `Nc1ccccc1-c1cc(N2CCOCC2)nc2c(-c3ccn[nH]3)nccc12` [Example 343, 2-[2-(morpholin-4-yl)-8-(1H-pyrazol-5-yl)-1,7-naphthyridin-4-yl]aniline]: the IC50 worked out at 1710 nM.

Take `c1ccc(-c2ccccc2-c2cc(N3CCOCC3)nc3c(-c4ccn[nH]4)nccc23)cc1` [Example 345, 4-(biphenyl-2-yl)-2-(morpholin-4-yl)-8-(1H-pyrazol-5-yl)-1,7-naphthyridine]: the IC50 is above 3000 nM.

Turning to `c1cc(-c2cc(N3CCOCC3)nc3c(-c4ccn[nH]4)nccc23)c2cccnc2c1` [Example 349, 2-(morpholin-4-yl)-8-(1H-pyrazol-5-yl)-4-(quinolin-5-yl)-1,7-naphthyridine], the IC50 was above 3000 nM.

Regarding `c1cncc(-c2cc(N3CCOCC3)nc3c(-c4ccn[nH]4)nccc23)c1` [Example 350, 2-(morpholin-4-yl)-8-(1H-pyrazol-5-yl)-4-(pyridin-3-yl)-1,7-naphthyridine], the IC50 was above 3000 nM.

Consider `COc1cc(-c2cc(N3CCOCC3)nc3c(-c4ccn[nH]4)nccc23)ccn1` [Example 351, 4-(2-methoxypyridin-4-yl)-2-(morpholin-4-yl)-8-(1H-pyrazol-5-yl)-1,7-naphthyridine], for which the IC50 stood at 3000 nM.

The test system of the next test is NCI-H460 cells. Briefly: Proliferation assay, crystal violet staining. To be noted: Homo sapiens, NCI-H460, 96 h, read-out: Inhibition of NCI-H460 cell proliferation, NCI-H460 cells, 4 days incubation.
Experimental: (§1) After 24 hours, the cells of one plate (zero plate) were dyed with crystal violet (see below), whereas the medium of the other plates was replaced with fresh culture medium (200 μl) to which the test substances were added in various concentrations (0 μM, and also in the range of 0.001-10 μM; the final concentration of the solvent dimethyl sulphoxide was 0.1 or 0.5%). The cells were incubated for 4 days in the presence of the test substances. […] After washing the fixed cells three times with water, the plates were dried at room temperature. The cells were stained by adding 100 μl/measurement point of a 0.1% strength crystal violet solution (pH adjusted to pH 3 by adding acetic acid). After washing the cells three times with water, the plates were dried at room temperature. The dye was dissolved by adding 100 μl/measurement point of a 10% strength acetic acid solution. […] The percentage change in cell growth was calculated by normalizing the measured values to the absorbance values of the zero plate (=0%) and the absorbance of the untreated (0 W) cells (=100%). The IC50 values were determined by means of a four parameter fit.
As for `C[C@@H]1COCCN1c1cc(OCCCCN)c2ccnc(-c3ccn[nH]3)c2n1` [Example 57, 4-({2-[(3R)-3-methylmorpholin-4-yl]-8-(1H-pyrazol-5-yl)-1,7-naphthyridin-4-yl}oxy)butan-1-amine], the IC50 came out at 374 nM.

Turning to `Clc1cc(N2CCOCC2)nc2c(-c3cc[nH]n3)nccc12` [Example 62, 4-chloro-2-morpholin-4-yl-8-(1H-pyrazol-3-yl)-[1,7]naphthyridine], the IC50 was above 3000 nM.

The test system of a further test is DU145 cells. Briefly: Proliferation assay, crystal violet staining. To be noted: Homo sapiens, DU-145, 96 h, read-out: Inhibition of DU145 cell proliferation, DU145 cells, 4 days incubation.
Experimental: as §1
`C[C@@H]1COCCN1c1cc(OCCCCN)c2ccnc(-c3ccn[nH]3)c2n1` [Example 57, 4-({2-[(3R)-3-methylmorpholin-4-yl]-8-(1H-pyrazol-5-yl)-1,7-naphthyridin-4-yl}oxy)butan-1-amine]: the IC50 came to 1560 nM.
